# Tested on: PC-3 cell proliferation
# Assay: Cell proliferation assay (WST-1), PC-3
# Assay type: cell-based
# Conditions: Homo sapiens; PC-3 cells, WST-1 readout; read-out: inhibitory activity against PC-3 cell proliferation (IC50 range)
# Protocol: A panel of cancer cell lines was obtained from the DCTP Tumor Repository, National Cancer Institute (Frederick, Md.) or ATCC (Rockville, Md.). Cell cultures were maintained in Hyclone RPMI 1640 medium (Logan, Utah) supplemented with 10% fetal bovine serum and 20 mM HEPES buffer, final pH 7.2, at 37° C. with a 5% CO2 atmosphere. Cultures were maintained at sub-confluent densities. Human umbilical vein endothelial cells (HUVEC) were purchased from Clonetics, a division of Cambrex (Walkersville, Md.). Cultures were established from cryopreserved stocks using Clonetics EGM-2 medium supplemented with 20 mM HEPES, final pH 7.2, at 37° C. with a 5% CO2 atmosphere.
# For proliferation assays, cells were seeded with the appropriate medium into 96 well plates at 1,000-2,500 cells per well, depending on the cell line, and were incubated overnight. The following day, test compound, DMSO solution (negative control), or Actinomycin D (positive control) was added to the appropriate wells as 10× concentrated stocks prepared in phosphate buffered saline. The cell plates were then incubated for an additional 2-5 days, depending on the cell line, to allow proliferation to occur. To measure cell density, 50 μL of WST-1 solution (Roche Applied Science, Ind.) diluted 1:5 in phosphate buffered saline was added to each well, and the cells incubated for an additional 1-5 hrs., again depending on the cell line. Optical density was determined for each well at […] using a Tecan GeniosPro plate reader (RTP, NC). The percentage of cell growth was determined by comparing the cell growth in the presence of test compounds to the cells treated with DMSO vehicle (control, 100% growth) and cells treated with Actinomycin D (10 μM, 0% growth). […]
row,IC50,Compound
1,500 to 5000 nM,"COCCNc1cc(-n2cc(C)c3c2CC(C)(C)CC3=O)ccc1C(N)=O [Compound 5, 2-(2-Methoxy-ethylamino)-4-(3,6,6-trimethyl-4-oxo-4,5,6,7-tetrahydro-indol-1-yl)-benzamide]"
2,< 500 nM,"COc1cc(Nc2cc(-n3nc(C)c4c3CC(C)(C)CC4=O)ccc2C(N)=O)cc(OC)c1OC [Compound 19, 4-(6,6-Dimethyl-4-oxo-3-methyl-4,5,6,7-tetrahydro-indazol-1-yl)-2-(3,4,5-trimethoxyanilino)-benzamide]"
3,< 500 nM,"COc1ccc(Nc2cc(-n3nc(C)c4c3CC(C)(C)CC4=O)ccc2C(N)=O)cc1OCCN(C)C [Compound 27, 2-[3-(2-Dimethylamino-ethoxy)-4-methoxy-phenylamino]-4-(3,6,6-trimethyl-4-oxo-4,5,6,7-tetrahydro-indazol-1-yl)-benzamide]"
4,< 500 nM,"CC1(C)CC(=O)c2c(C(F)(F)F)nn(-c3ccc(C(N)=O)c(NC4CCSCC4)c3)c2C1 [Compound 31, 4-(6,6-Dimethyl-4-oxo-3-trifluoromethyl-4,5,6,7-tetrahydro-indazol-1-yl)-2-(tetrahydro-thiopyran-4-ylamino)-benzamide]"
5,500 to 5000 nM,"C#Cc1cccc(Nc2cc(-n3c(C)cc4c3CC(C)(C)CC4=O)ccc2C(N)=O)c1 [Compound 72, 2-[(3-ethynylphenyl)amino]-4-(2,6,6-trimethyl-4-oxo-4,5,6,7-tetrahydro-1H-indol-1-yl)benzamide]"
6,5000 to 50000 nM,"Cc1cc2c(n1-c1ccc(C(N)=O)c(Nc3ccccc3)c1)CCCC2=O [Compound 74, 2-anilino-4-(2-methyl-4-oxo-4,5,6,7-tetrahydro-1H-indol-1-yl)benzamide]"
7,< 500 nM,"COc1cc(Nc2cc(-n3c(C)c(Cl)c4c3CC(C)(C)CC4=O)ccc2C(N)=O)cc(OC)c1OC [Compound 81, 4-(3-chloro-2,6,6-trimethyl-4-oxo-4,5,6,7-tetrahydro-1H-indol-1-yl)-2-[(3,4,5-trimethoxyphenyl)amino]benzamide]"
8,500 to 5000 nM,"Cc1cc2c(n1-c1ccc(C(N)=O)c(Nc3ccc(O)cc3)c1)CC(C)(C)CC2=O [Compound 82, 2-[(4-hydroxyphenyl)amino]-4-(2,6,6-trimethyl-4-oxo-4,5,6,7-tetrahydro-1H-indol-1-yl)benzamide]"
9,500 to 5000 nM,"Cc1cc(Nc2cc(-n3c(C)cc4c3CC(C)(C)CC4=O)ccc2C(N)=O)no1 [Compound 84, 2-[(5-methylisoxazol-3-yl)amino]-4-(2,6,6-trimethyl-4-oxo-4,5,6,7-tetrahydro-1H-indol-1-yl)benzamide]"
10,500 to 5000 nM,"COc1ccc(Nc2cc(-n3c(C)cc4c3CC(C)(C)CC4=O)ccc2C(N)=O)cc1OCCCN(C)C [Compound 93, 2-({3-[3-(dimethylamino)propoxy]-4-methoxyphenyl}amino)-4-(2,6,6-trimethyl-4-oxo-4,5,6,7-tetrahydro-1H-indol-1-yl)benzamide]"
11,< 500 nM,"Cc1cn(-c2ccc(C(N)=O)c(Nc3ccncc3)c2)c2c1C(=O)CC(C)(C)C2 [Compound 97, 2-(pyridin-4-ylamino)-4-(3,6,6-trimethyl-4-oxo-4,5,6,7-tetrahydro-1H-indol-1-yl)benzamide]"
12,< 500 nM,"Cc1nn(-c2ccc(C(N)=O)c(NCC3CC3)c2)c2c1C(=O)CC(C)(C)C2 [Compound 100, 2-[(cyclopropylmethyl)amino]-4-(3,6,6-trimethyl-4-oxo-4,5,6,7-tetrahydro-1H-indazol-1-yl)benzamide]"
13,500 to 5000 nM,"COCC(=O)Nc1cc(-n2cc(C)c3c2CC(C)(C)CC3=O)ccc1C(N)=O [Compound 101, 2-[(methoxyacetyl)amino]-4-(3,6,6-trimethyl-4-oxo-4,5,6,7-tetrahydro-1H-indol-1-yl)benzamide]"
14,< 500 nM,"COc1ccc(Nc2cc(-n3cc(C)c4c3CC(C)(C)CC4=O)ccc2C(N)=O)cc1OCCN(C)C [Compound 104, 2-({3-[2-(dimethylamino)ethoxy]-4-methoxyphenyl}amino)-4-(3,6,6-trimethyl-4-oxo-4,5,6,7-tetrahydro-1H-indol-1-yl)benzamide]"
